# Results reported in paper PMC10848769, “Tartrolon E, a secondary metabolite of a marine symbiotic bacterium, is a potent inhibitor of asexual and sexual Plasmodium falciparum” (Antimicrobial Agents and Chemotherapy, 2024).
# Where two headings read alike, the source gives them in different places.
# Tests used:
# [1] = system: P. falciparum clone TM90C2A; details: by EC50 or, for ART, RSA, well-characterized susceptibilities; cited from earlier work
# P. falciparum clone D6 [2] = details: by EC50 or, for ART, RSA, well-characterized susceptibilities; cited from earlier work
# P. falciparum clone 7G8 [3] = details: by EC50 or, for ART, RSA, well-characterized susceptibilities; cited from earlier work
# P. falciparum clone V1/S [4] = details: by EC50 or, for ART, RSA, well-characterized susceptibilities; cited from earlier work
# [5] = system: P. falciparum clone IPC 3445; set-up: method as in BEI, Didier Menard; details: by EC50 or, for ART, RSA, well-characterized susceptibilities, ref BEI, Didier Menard; cited from earlier work
# P. falciparum clone GMC1 [6] = details: by EC50 or, for ART, RSA, well-characterized susceptibilities; cited from earlier work
# P. falciparum clone NF54 [7] = details: by EC50 or, for ART, RSA, well-characterized susceptibilities; cited from earlier work
# P. falciparum clone HB3 [8] = details: by EC50 or, for ART, RSA, well-characterized susceptibilities; cited from earlier work
# [9] = system: P. falciparum clone IPC 5202; set-up: method as in BEI, Didier Menard; details: by EC50 or, for ART, RSA, well-characterized susceptibilities, ref BEI, Didier Menard; cited from earlier work
# P. falciparum clone Dd2 [10] = details: by EC50 or, for ART, RSA, well-characterized susceptibilities; cited from earlier work
# P. falciparum clone 3D7 [11] = details: by EC50 or, for ART, RSA, well-characterized susceptibilities; cited from earlier work
# P. falciparum clone 3D7 [12] = assay: Standard growth inhibition assay, Pf clone panel; format: cell-based; details: Plasmodium falciparum; clone 3D7, Netherlands; read-out: EC50 (nM) (95% CI)
# Experimental: (§1) A diverse panel of P. falciparum clones, collected from four continents with varying genetic backgrounds and well-characterized susceptibilities to novel and existing antimalarials, was treated with TrtE and DHA in standard growth inhibition assays. […] Additional studies are needed to determine whether there is any similarity in mechanism between TrtE and DHA.
# [13] = system: P. falciparum clone TM90C2A; assay: Standard growth inhibition assay, Pf clone panel; format: cell-based; details: Plasmodium falciparum, Thailand, read-out: EC50 (nM) (95% CI)
# Experimental: as §1
# [14] = system: P. falciparum clone IPC 3445; assay: Standard growth inhibition assay, Pf clone panel; format: cell-based; details: Plasmodium falciparum; clone IPC 3445, Palin, Cambodia; read-out: EC50 (nM) (95% CI)
# Experimental: as §1
# P. falciparum clone 7G8 [15] = assay: Standard growth inhibition assay, Pf clone panel; format: cell-based; details: Plasmodium falciparum; clone 7G8, Brazil; read-out: EC50 (nM) (95% CI)
# Experimental: as §1
# P. falciparum clone D6 [16] = assay: Standard growth inhibition assay, Pf clone panel; format: cell-based; details: Plasmodium falciparum; clone D6, Sierra Leone; read-out: EC50 (nM) (95% CI)
# Experimental: as §1
# P. falciparum clone Dd2 [17] = assay: Standard growth inhibition assay, Pf clone panel; format: cell-based; details: Plasmodium falciparum; clone Dd2, SE Asia; read-out: EC50 (nM) (95% CI)
# Experimental: as §1
# P. falciparum clone HB3 [18] = assay: Standard growth inhibition assay, Pf clone panel; format: cell-based; details: Plasmodium falciparum; clone HB3, Honduras; read-out: EC50 (nM) (95% CI)
# Experimental: as §1
# P. falciparum clone GMC1 [19] = assay: Standard growth inhibition assay, Pf clone panel; format: cell-based; details: Plasmodium falciparum; clone GMC1, Goa, India; read-out: EC50 (nM) (95% CI)
# Experimental: as §1
# P. falciparum clone NF54 [20] = assay: Standard growth inhibition assay, Pf clone panel; format: cell-based; details: Plasmodium falciparum; clone NF54, Netherlands; read-out: EC50 (nM) (95% CI)
# Experimental: as §1
# P. falciparum clone V1/S [21] = assay: Standard growth inhibition assay, Pf clone panel; format: cell-based; details: Plasmodium falciparum, Vietnam, read-out: EC50 (nM) (95% CI)
# Experimental: as §1
# [22] = system: P. falciparum clone IPC 5202; assay: Standard growth inhibition assay, Pf clone panel; format: cell-based; details: Plasmodium falciparum; clone IPC 5202, Battambang, Cambodia; read-out: EC50 (nM) (95% CI)
# Experimental: as §1
# [23] = system: P. falciparum clone D10 w/ yDHODH; assay: Standard growth inhibition assay, Pf clone panel; format: cell-based; details: Plasmodium falciparum, D10, read-out: EC50 (nM) (95% CI)
# Experimental: as §1
# [24] = system: P. falciparum 3D7 asexual blood stages; assay: Standard 72-hour inhibitor-response (parasite proliferation) assay; format: cell-based; details: Plasmodium falciparum, read-out: 3D7 EC50
# [25] = system: P. falciparum clone D10 w/ yDHODH; details: by EC50 or, for ART, RSA, well-characterized susceptibilities; cited from earlier work
# [26] = system: human liver cell line HepG2; assay: In vitro cytotoxicity assay; format: cell-based; details: for EC50: Homo sapiens, HepG2, read-out: EC50 (µM) (95% CI) HepG2
# Experimental: (§2) In preliminary experiments to evaluate cytotoxicity to mammalian cells, the murine leukemia L1210 cell line and the human liver cell line HepG2 were grown under identical conditions alongside Pf 3D7. These were treated with TrtE, the chemotherapeutic methotrexate, and DSM265, an inhibitor of parasite dihydroorotate dehydrogenase ([19]).
# [27] = system: murine leukemia L1210 cell line; assay: In vitro cytotoxicity assay; details: for EC50: Mus musculus, L1210, read-out: EC50 (µM) (95% CI) L1210
# Experimental: as §2
# Pf 3D7 = assay: Parasite growth alongside mammalian cytotoxicity assays; format: cell-based; details: Plasmodium falciparum; 3D7, grown under identical conditions alongside mammalian cells; read-out: EC50 (µM) (95% CI) 3D7
# Experimental: as §2
# [28] = system: P. falciparum gametocytes; set-up: method as in PMID 24206914; details: read-out: gametocytocidal potency of comparator antimalarials; cited from earlier work
SMILES,Clone susceptibility to antimalarial (R/S) [1],Clone susceptibility to antimalarial (R/S) (P. falciparum clone D6 [2]),Clone susceptibility to antimalarial (R/S) (P. falciparum clone 7G8 [3]),Clone susceptibility to antimalarial (R/S) (P. falciparum clone V1/S [4]),Clone susceptibility to antimalarial (R/S) [5],Clone susceptibility to antimalarial (R/S) (P. falciparum clone GMC1 [6]),Clone susceptibility to antimalarial (R/S) (P. falciparum clone NF54 [7]),Clone susceptibility to antimalarial (R/S) (P. falciparum clone HB3 [8]),Clone susceptibility to antimalarial (R/S) [9],Clone susceptibility to antimalarial (R/S) (P. falciparum clone Dd2 [10]),Clone susceptibility to antimalarial (R/S) (P. falciparum clone 3D7 [11]),"EC50 ([24]; 3D7, 72-hour assay) [nM]",Clone susceptibility to antimalarial (R/S) [25],also measured
"CC1(C)N=C(N)N=C(N)N1c1ccc(Cl)cc1 [CG, cycloguanil]",R,S,R,R,R,R,S,S,R,R,S,–,–,–
"C[C@H]1[C@@H](O)O[C@@H]2O[C@@]3(C)CC[C@H]4[C@H](C)CC[C@@H]1[C@@]24OO3 [DHA, dihydroartemisinin]",–,–,–,–,–,–,–,–,–,–,–,0.129,–,EC50 (P. falciparum clone 3D7 [12]): 0.11 nM; EC50 [13]: 0.091 nM; EC50 [14]: 0.92 nM; EC50 (P. falciparum clone 7G8 [15]): 0.095 nM; EC50 (P. falciparum clone D6 [16]): 0.17 nM; EC50 (P. falciparum clone Dd2 [17]): 0.14 nM; EC50 (P. falciparum clone HB3 [18]): 0.16 nM; EC50 (P. falciparum clone GMC1 [19]): 0.21 nM; EC50 (P. falciparum clone NF54 [20]): 0.15 nM; EC50 (P. falciparum clone V1/S [21]): 0.084 nM; EC50 [22]: 0.94 nM; EC50 [23]: 0.12 nM
Cc1cc(Nc2ccc3ccccc3c2)n2ncnc2n1 [DSM1],S,S,S,S,S,S,S,S,S,S,S,–,R,–
Cc1cc(Nc2ccc(S(F)(F)(F)(F)F)cc2)n2nc(C(C)(F)F)nc2n1 [DSM265],–,–,–,–,–,–,–,–,–,–,–,5,–,"Selectivity index (EC50 of HepG2/EC50 3D7) ([26]; HepG2 vs 3D7): 1,980; EC50 [26]: 9.9 µM; Selectivity index (EC50 of L1210/EC50 3D7) ([27]; L1210 vs 3D7): > 4,000; EC50 [27]: > 20 µM; EC50 (Pf 3D7): 0.005 µM"
"OC(c1cc(C(F)(F)F)nc2c(C(F)(F)F)cccc12)C1CCCCN1 (stereo not shown) [MQ, mefloquine]",R,S,S,S,R,S,S,S,R,R,S,–,S,–
CN(Cc1cnc2nc(N)nc(N)c2n1)c1ccc(C(=O)N[C@@H](CCC(=O)O)C(=O)O)cc1 [Methotrexate],–,–,–,–,–,–,–,–,–,–,–,–,–,EC50 [26]: > 1 µM; EC50 [27]: 0.012 µM; EC50 (Pf 3D7): 0.047 µM
"C=C[C@H]1C[N@@]2CC[C@H]1C[C@H]2[C@H](O)c1ccnc2ccc(OC)cc12 [QN, quinine]",–,S,R,R,R,–,S,S,R,R,S,–,–,–
"COc1ncnc(NS(=O)(=O)c2ccc(N)cc2)c1OC [SDX, sulfadoxine]",–,S,–,–,R,R,R,S,R,R,R,–,–,–
C[C@@H]1CC[C@H]2[C@@H](C)C(=O)O[C@@H]3O[C@@]4(C)CC[C@@H]1[C@]32OO4 [artemisinin],S,S,S,S,R,S,S,S,R,S,S,6,S,–
O=C1C(O)=C([C@H]2CC[C@H](c3ccc(Cl)cc3)CC2)C(=O)c2ccccc21 [atovaquone],S,S,S,S,S,S,S,S,S,S,S,1,R,–
CCN(CC)CCCC(C)Nc1ccnc2cc(Cl)ccc12 (stereo not shown) [chloroquine],R,S,R,R,R,R,S,S,R,R,S,–,S,"EC50 ([24]; 3D7, 72 h): 6 nM"
COc1cc(NC(C)CCCN)c2ncccc2c1 (stereo not shown) [primaquine],–,–,–,–,–,–,–,–,–,–,–,–,–,EC50 [28]: > 40000 nM
CCc1nc(N)nc(N)c1-c1ccc(Cl)cc1 [pyrimethamine],R,S,R,R,R,R,S,R,R,R,S,19,–,–
COc1ccc2nc3cc(Cl)ccc3c(Nc3cc(CN4CCCC4)c(O)c(CN4CCCC4)c3)c2n1 [pyronaridine],–,–,–,–,–,–,–,–,–,–,–,–,–,EC50 [28]: 4260 nM
